How the values were obtained:
Assay in all cases: relative viability (nuclei count vs DMSO), 5 days (fraction); higher = more cells survive
PC-14 = test system: PC-14
How it was run: (§1)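 Values are medians from duplicate plates. Each reflects relative viability, defined as the nuclei count of treated wells over that of vehicle wells. Lung cancer cell lines in 1536-well plates were pin-tool dosed one day after seeding with one drug alone or with a fixed anchor-drug dose plus five library-drug doses (not always all listed) in √10 steps, then fixed, stained and imaged at 4× after 5 days.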

NCI-H1734 = test system: NCI-H1734
How it was run: as §1

COR-L23 = test system: COR-L23
How it was run: as §1

NCI-H2405 = test system: NCI-H2405
How it was run: as §1

NCI-H1650 = test system: NCI-H1650
How it was run: as §1

NCI-H1563 = test system: NCI-H1563
How it was run: as §1

NCI-H520 = test system: NCI-H520
How it was run: as §1

NCI-H661 = test system: NCI-H661
How it was run: as §1

RERF-LC-KJ = test system: RERF-LC-KJ
How it was run: as §1

NCI-H2342 = test system: NCI-H2342
How it was run: as §1

NCI-H1355 = test system: NCI-H1355
How it was run: as §1

NCI-H322M = test system: NCI-H322M
How it was run: as §1

PC-3 [JPC-3] = test system: PC-3 [JPC-3]
How it was run: as §1

CAL-12T = test system: CAL-12T
How it was run: as §1

ABC-1 = test system: ABC-1
How it was run: as §1

HCC-827 = test system: HCC-827
How it was run: as §1

EKVX = test system: EKVX
How it was run: as §1

NCI-H1437 = test system: NCI-H1437
How it was run: as §1

SW 1573 = test system: SW 1573
How it was run: as §1

LK-2 = test system: LK-2
How it was run: as §1

H3255 = test system: H3255
How it was run: as §1

HCC-15 = test system: HCC-15
How it was run: as §1

NCI-H2228 = test system: NCI-H2228
How it was run: as §1

C=C1C(=O)O[C@@H](CCCCCCCC)[C@@H]1C(=O)O [C-75] + N=C(N)NC(=N)NCCc1ccccc1 [Phenformin] (partner 250 µM)
relative viability (PC-14; first compound 0.08 µM): 0.469
relative viability (PC-14; first compound 0.253 µM): 0.516
relative viability (PC-14; first compound 0.8 µM): 0.479
relative viability (PC-14; first compound 2.53 µM): 0.549
relative viability (PC-14; first compound 8 µM): 0.526
relative viability (NCI-H1734; first compound 0.08 µM): 0.413
relative viability (NCI-H1734; first compound 0.253 µM): 0.427
relative viability (NCI-H1734; first compound 0.8 µM): 0.356
relative viability (NCI-H1734; first compound 2.53 µM): 0.286
relative viability (NCI-H1734; first compound 8 µM): 0.283
relative viability (COR-L23; first compound 0.08 µM): 0.44
relative viability (COR-L23; first compound 0.253 µM): 0.386
relative viability (COR-L23; first compound 0.8 µM): 0.41
relative viability (COR-L23; first compound 2.53 µM): 0.42
relative viability (COR-L23; first compound 8 µM): 0.421
relative viability (NCI-H2405; first compound 0.08 µM): 0.387
relative viability (NCI-H2405; first compound 0.253 µM): 0.331
relative viability (NCI-H2405; first compound 0.8 µM): 0.405
relative viability (NCI-H2405; first compound 2.53 µM): 0.368
relative viability (NCI-H2405; first compound 8 µM): 0.45
relative viability (NCI-H1650; first compound 0.08 µM): 0.47
relative viability (NCI-H1650; first compound 0.253 µM): 0.502
relative viability (NCI-H1650; first compound 2.53 µM): 0.448
relative viability (NCI-H1650; first compound 8 µM): 0.491
relative viability (NCI-H1563; first compound 0.08 µM): 0.656
relative viability (NCI-H1563; first compound 0.253 µM): 0.64
relative viability (NCI-H1563; first compound 0.8 µM): 0.655
relative viability (NCI-H1563; first compound 2.53 µM): 0.63
relative viability (NCI-H1563; first compound 8 µM): 0.691
relative viability (NCI-H520; first compound 0.08 µM): 0.539
relative viability (NCI-H520; first compound 0.253 µM): 0.747
relative viability (NCI-H520; first compound 0.8 µM): 0.464
relative viability (NCI-H520; first compound 2.53 µM): 0.389
relative viability (NCI-H520; first compound 8 µM): 0.482
relative viability (NCI-H661; first compound 0.08 µM): 0.313
relative viability (NCI-H661; first compound 0.253 µM): 0.271
relative viability (NCI-H661; first compound 0.8 µM): 0.296
relative viability (NCI-H661; first compound 2.53 µM): 0.237
relative viability (NCI-H661; first compound 8 µM): 0.288
relative viability (RERF-LC-KJ; first compound 0.08 µM): 0.427
relative viability (RERF-LC-KJ; first compound 0.253 µM): 0.452
relative viability (RERF-LC-KJ; first compound 0.8 µM): 0.398
relative viability (RERF-LC-KJ; first compound 2.53 µM): 0.469
relative viability (RERF-LC-KJ; first compound 8 µM): 0.405
relative viability (NCI-H2342; first compound 0.08 µM): 0.542
relative viability (NCI-H2342; first compound 0.253 µM): 0.634
relative viability (NCI-H2342; first compound 0.8 µM): 0.664
relative viability (NCI-H2342; first compound 2.53 µM): 0.512
relative viability (NCI-H2342; first compound 8 µM): 0.524
relative viability (NCI-H1355; first compound 0.08 µM): 0.488
relative viability (NCI-H1355; first compound 0.253 µM): 0.444
relative viability (NCI-H1355; first compound 0.8 µM): 0.452
relative viability (NCI-H1355; first compound 2.53 µM): 0.401
relative viability (NCI-H1355; first compound 8 µM): 0.484
relative viability (NCI-H322M; first compound 0.08 µM): 0.749
relative viability (NCI-H322M; first compound 0.253 µM): 0.886
relative viability (NCI-H322M; first compound 0.8 µM): 0.781
relative viability (NCI-H322M; first compound 2.53 µM): 0.718
relative viability (NCI-H322M; first compound 8 µM): 0.789
relative viability (PC-3 [JPC-3]; first compound 0.08 µM): 0.457
relative viability (PC-3 [JPC-3]; first compound 0.253 µM): 0.468
relative viability (PC-3 [JPC-3]; first compound 0.8 µM): 0.47
relative viability (PC-3 [JPC-3]; first compound 2.53 µM): 0.48
relative viability (PC-3 [JPC-3]; first compound 8 µM): 0.503
relative viability (CAL-12T; first compound 0.08 µM): 0.545
relative viability (CAL-12T; first compound 0.253 µM): 0.746
relative viability (CAL-12T; first compound 0.8 µM): 0.567
relative viability (CAL-12T; first compound 2.53 µM): 0.556
relative viability (CAL-12T; first compound 8 µM): 0.515
relative viability (ABC-1; first compound 0.08 µM): 0.209
relative viability (ABC-1; first compound 0.253 µM): 0.289
relative viability (ABC-1; first compound 0.8 µM): 0.231
relative viability (ABC-1; first compound 2.53 µM): 0.19
relative viability (ABC-1; first compound 8 µM): 0.199
relative viability (HCC-827; first compound 0.08 µM): 0.428
relative viability (HCC-827; first compound 0.253 µM): 0.391
relative viability (HCC-827; first compound 0.8 µM): 0.38
relative viability (HCC-827; first compound 2.53 µM): 0.36
relative viability (HCC-827; first compound 8 µM): 0.42
relative viability (EKVX; first compound 0.08 µM): 0.213
relative viability (EKVX; first compound 0.253 µM): 0.228
relative viability (EKVX; first compound 0.8 µM): 0.232
relative viability (EKVX; first compound 8 µM): 0.25
relative viability (NCI-H1437; first compound 0.08 µM): 0.322
relative viability (NCI-H1437; first compound 0.253 µM): 0.323
relative viability (NCI-H1437; first compound 0.8 µM): 0.302
relative viability (NCI-H1437; first compound 2.53 µM): 0.284
relative viability (NCI-H1437; first compound 8 µM): 0.296
relative viability (SW 1573; first compound 0.08 µM): 0.462
relative viability (SW 1573; first compound 0.253 µM): 0.351
relative viability (SW 1573; first compound 0.8 µM): 0.376
relative viability (SW 1573; first compound 2.53 µM): 0.381
relative viability (SW 1573; first compound 8 µM): 0.244
relative viability (LK-2; first compound 0.08 µM): 0.519
relative viability (LK-2; first compound 0.253 µM): 0.537
relative viability (LK-2; first compound 0.8 µM): 0.484
relative viability (LK-2; first compound 2.53 µM): 0.226
relative viability (LK-2; first compound 8 µM): 0.273
relative viability (H3255; first compound 0.08 µM): 0.345
relative viability (H3255; first compound 0.253 µM): 0.352
relative viability (H3255; first compound 0.8 µM): 0.392
relative viability (H3255; first compound 2.53 µM): 0.337
relative viability (H3255; first compound 8 µM): 0.331
relative viability (HCC-15; first compound 0.08 µM): 0.489
relative viability (HCC-15; first compound 0.253 µM): 0.469
relative viability (HCC-15; first compound 0.8 µM): 0.42
relative viability (HCC-15; first compound 2.53 µM): 0.377
relative viability (HCC-15; first compound 8 µM): 0.446
relative viability (NCI-H2228; first compound 0.08 µM): 0.294
relative viability (NCI-H2228; first compound 0.253 µM): 0.304
relative viability (NCI-H2228; first compound 0.8 µM): 0.33
relative viability (NCI-H2228; first compound 2.53 µM): 0.244
relative viability (NCI-H2228; first compound 8 µM): 0.277
